Measured values as given in US20260199484A1, “PROTAC DEGRADERS OF MLLT1 AND/OR MLLT3” (DARK BLUE THERAPEUTICS LTD, priority 2024, published 2026).
pIC50: −log10 of the molar value.

Key:
MLLT3 = target: T1, MLLT3 (Homo sapiens, UniProt P42568); assay: MLLT3 HTRF IC50 determination assay (H3K9cro peptide displacement); format: binding; conditions: category, Table 4
T1 sequence (P42568 1-568): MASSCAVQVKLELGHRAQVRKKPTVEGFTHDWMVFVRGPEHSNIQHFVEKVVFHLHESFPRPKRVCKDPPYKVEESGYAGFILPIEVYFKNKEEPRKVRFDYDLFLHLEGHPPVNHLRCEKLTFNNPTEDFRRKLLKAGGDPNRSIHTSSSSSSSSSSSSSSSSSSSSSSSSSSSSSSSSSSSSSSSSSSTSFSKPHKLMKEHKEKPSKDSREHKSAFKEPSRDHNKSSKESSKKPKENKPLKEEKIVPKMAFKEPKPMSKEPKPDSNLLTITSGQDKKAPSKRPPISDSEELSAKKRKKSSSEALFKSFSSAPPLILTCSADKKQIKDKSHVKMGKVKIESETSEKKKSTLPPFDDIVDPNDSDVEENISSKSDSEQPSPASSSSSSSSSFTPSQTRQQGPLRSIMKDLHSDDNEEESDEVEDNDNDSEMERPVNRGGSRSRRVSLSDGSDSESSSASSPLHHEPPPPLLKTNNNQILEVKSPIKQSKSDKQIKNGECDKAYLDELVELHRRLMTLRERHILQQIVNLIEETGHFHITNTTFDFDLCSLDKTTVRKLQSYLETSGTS
Text: (§1) This procedure is intended to measure the interaction between YEATS proteins and histone peptides modified by an appropriate epigenetic mark and can be used to assay compounds which bind to the YEATS proteins and inhibit this interaction. The assay uses 6His tagged MLLT1 or MLLT3 with an anti-6His antibody conjugated with Eu^3+ chelate (donor) and a biotinylated peptide with Streptavidin conjugated XL-665 (acceptor). When the donor and acceptor labels are in close proximity, by binding of the peptide by MLLT1 or MLLT3, the excitation of the donor (337 nm) triggers a Fluorescence Resonance Energy Transfer (FRET) to the acceptor which then fluoresces at specific wavelength (665 nm).
(§2) This step optimises the protein/peptide ratio that will be used in HTRF screening assay in order to allow the best signal-to-noise ratio. Each new purified protein should be titrate this way as the signal-to-noise ratio may differ from different protein batches. Displacement assay for MLLT1 and MLLT3 was performed by using H3K9 cro peptide (ARTKQTAR(Kcrot)STGGKAPRKQLYK(biotin)).
(§3) A serial dilution of 4× solution of biotinylated peptide was prepared in assay buffer (25 mM HEPES, 20 mM NaCl, 0.05% BSA, 0.05% Tween-20, pH 7.0) covering concentrations from 3.2 μM to 0.2 nM. and 5 μL of each dilution were transferred horizontally to fill 15 columns of a white ProxiPlate-384 Plus shallow well Microplate (Perkin Elmer, USA). A sixteenth column of buffer was also included for a background reference. In parallel, a serial dilution of the 6His-tag protein of interest was prepared in the same way and 5 μL of each dilution were vertically added to the wells containing the peptide dilutions. Buffer has been transferred to the last line of the plate in order to make a no-protein reference. The microplate has been covered and incubated 1 hour at room temperature. A 2× detection mix was prepared in assay buffer by diluting streptavidin conjugated with XL-665 (610SAXLB, Cisbio Bioassays, France) to 1/2000 and anti-6His(Eu) chelate (LANCE Eu-W1024 Anti-6×His, ADO111, Perkinelmer LAS (UK)LTD) to 1/20000, 10 μL were added to each well and the plate has been incubated for 1 to 24 hours at room temperature in the dark. The plate was read in the Pherastar using the HTRF module with dual emission protocol (A=ex. 320 nm em. 665 nm, B=ex. 320 nm em. 620 nm).
(§4) The HTRF ratio was calculated as channel A/B*10000 and the specific signal as follow: specific signal=HTRF Ratio Positive signal—HTRF Ratio Negative signal (without protein). The concentrations of protein and peptide that allow the maximum specific signal without saturation were selected to perform HRTF screening assay described below.
(§5) The compounds were dissolved in DMSO at a stock concentration of 10 mM and dispensed into microplate using the Echo acoustic liquid handler (Labcyte, Beckman Coulter, USA). The assay covers a window of compound concentrations from 20 μM to 20 nM spread in 11 data points in duplicate. Solvent and compound controls were added to each plate in order to calculate the background signal.
(§6) Ten microliters of 2× mix of 6His-protein and biotinylated peptide, the concentrations were determined above, were added to the dispensed compounds and incubated for one hour at room temperature in the dark. Ten microliters of the 2× detection mix was added to each well and the plate was incubated for another hour at room temperature in the dark and the plate was read in order to calculate the HTRF specific signal. The % inhibition values as follows:
(§7) The IC50 values were determined by plotting % inhibition vs compound concentration and fitting the data to a non-linear sigmoidal dose response equation (4 parameter fit): […]

MLLT1 [1] = target: T2, MLLT1 (Homo sapiens, UniProt Q03111); assay: MLLT1 HTRF IC50 determination assay (H3K9cro peptide displacement); format: binding; conditions: category, Table 4
T2 sequence (Q03111 1-559): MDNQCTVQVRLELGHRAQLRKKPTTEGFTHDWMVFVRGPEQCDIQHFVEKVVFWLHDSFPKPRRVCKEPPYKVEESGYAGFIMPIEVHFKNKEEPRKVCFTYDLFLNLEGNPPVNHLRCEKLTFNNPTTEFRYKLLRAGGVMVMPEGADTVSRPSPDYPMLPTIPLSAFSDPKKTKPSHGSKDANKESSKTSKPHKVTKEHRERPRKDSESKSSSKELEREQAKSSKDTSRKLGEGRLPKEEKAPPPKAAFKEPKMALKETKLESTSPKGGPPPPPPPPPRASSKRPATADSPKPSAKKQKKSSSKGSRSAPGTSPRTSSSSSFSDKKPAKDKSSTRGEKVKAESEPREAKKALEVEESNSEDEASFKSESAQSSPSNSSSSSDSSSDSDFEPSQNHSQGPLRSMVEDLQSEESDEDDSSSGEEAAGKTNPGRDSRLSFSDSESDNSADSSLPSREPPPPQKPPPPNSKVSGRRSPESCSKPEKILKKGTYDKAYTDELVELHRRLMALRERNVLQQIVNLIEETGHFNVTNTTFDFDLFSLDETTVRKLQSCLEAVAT
Text: as §1, §2, §3, §4, §5, §6, §7

MV4-11 cells = assay: MV4-11 cellular proliferative assay, Assay Format B (CTG 2.0, 168 h); format: cell-based; conditions: Homo sapiens, Assay format B, 168 h, read-out: IC50 (MV4-11 cellular proliferative assay)
Protocol: MV4-11 cells at a confluency of ~50-80% was used for cell growth assay. 600 cells/well in a 384-well opaque cell culture plate (6007680; Perkin Elmer) were seeded in 40 μL of complete medium (IMDM+10% FBS+1× Penicillin-Streptomycin). Cells were incubated overnight at 37° C., 5% CO2. 10 mM DMSO stocks were prepared, cells were treated with 10 concentrations of test compounds starting from 1 uM or 100 nM, 3-fold dilution in 10 uL (5× concentration) of complete medium. Final DMSO concentration was 0.3%. Culture plates were centrifuged at 40×g, 30s. Cells were incubated with compounds for 168 h (7 days). After 7 days, 20 uL CTG 2.0 reagent (G9242; Promega) was added per well and luminescence reading was taken in Envision Xcite 2105 multimode plate reader. Data was analyzed in GraphPad Prism 10.0 and data was shown as % viability with respect to DMSO control and dose-response curves were generated using four parameter logistic regression. Assay quality was determined by z-factor calculation using positive and negative controls.

MLLT1 [2] = target: T2, MLLT1; assay: MLLT1 degradation assay in MV4-11 cells (JESS, 24 h); format: cell-based; parameters: endogenous in cells; host or cells: MV4-11 (ATCC CRL-9591); conditions: vs DMSO control
How it was run: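 MV4-11 cells treated at 1000, 100 and 10 nM (0.1% DMSO) for 24 h at 37° C; lysates (4 ug protein) run on JESS capillary immunoassay with MLLT1 and GAPDH antibodies. Peak areas give % degradation versus DMSO, binned A (≥75%) to D (<25%).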

Row | pIC50 (MV4-11 cells) | MLLT1% Degradation @ 0.01 μM (MLLT1 [2]) | MLLT1% Degradation @ 0.1 μM (MLLT1 [2]) | MLLT1% Degradation @ 1 μM (MLLT1 [2]) | SMILES | pIC50 (MLLT3) | pIC50 (MLLT1 [1])
1 | – | – | – | – | Cc1nn(C)c2cc(C(=O)Nc3cc4[nH]c(C5CCCN5C)cc4cn3)ccc12 (racemic) [Example 75, rac-1,3-dimethyl-N-(2-(1-methylpyrrolidin-2-yl)-1H-pyrrolo[3,2-c]pyridin-6-yl)-1H-indazole-6-carboxamide] | 6.00 to 7.00 | ≥ 7.00
2 | – | – | – | – | Cc1nn(C)c2cc(C(=O)Nc3cc4[nH]c([C@@H]5CCCN5C)cc4cn3)ccc12 (single isomer, unassigned) [Example 77] | 5.00 to 6.00 | 6.00 to 7.00
3 | – | – | – | – | CN1CCCC1c1cc2cnc(NC(=O)c3ccc4c(cnn4C)c3)cc2[nH]1 (single isomer, unassigned) [Example 78, 1-methyl-N-{2-[(rel-2S)-1-methylpyrrolidin-2-yl]-1H-pyrrolo[3,2-c]pyridin-6-yl}indazole-5-carboxamide] | 5.00 to 6.00 | 5.00 to 6.00
4 | – | – | – | – | CN1CCCC1c1cc2cnc(NC(=O)c3ccc4c(cnn4C)c3)cc2[nH]1 (single isomer, unassigned) [Example 79, 1-methyl-N-{2-[(rel-2R)-1-methylpyrrolidin-2-yl]-1H-pyrrolo[3,2-c]pyridin-6-yl}indazole-5-carboxamide] | ≥ 7.00 | ≥ 7.00
5 | – | – | – | – | CCN1CCCC1c1cc2cnc(NC(=O)c3ccc4c(C)nn(C)c4c3)cc2[nH]1 (single isomer, unassigned) [Example 84, N-{2-[(rel-2R)-1-ethylpyrrolidin-2-yl]-1H-pyrrolo[3,2-c]pyridin-6-yl}-1,3-dimethylindazole-6-carboxamide] | 6.00 to 7.00 | 6.00 to 7.00
6 | – | – | – | – | CCN1CCCC1c1cc2cnc(NC(=O)c3ccc4c(C)nn(C)c4c3)cc2[nH]1 (single isomer, unassigned) [Example 85, N-{2-[(rel-2S)-1-ethylpyrrolidin-2-yl]-1H-pyrrolo[3,2-c]pyridin-6-yl}-1,3-dimethylindazole-6-carboxamide] | – | 5.00 to 6.00
7 | > 7.00 | B (Category B: 50%≤B<75% degradation) | A (Category A: A≥75% degradation) | C (Category C: 25%≤C<50% degradation) | Cc1nn(CC2CCN(c3ccc4c(c3)C(=O)N(C3CCC(=O)NC3=O)C4=O)CC2)c2cc(C(=O)Nc3cc4[nH]c([C@H]5CCCN5C)cc4cn3)ccc12 (stereo partly drawn) [Example 104, 1-((1-(2-(2,6-dioxopiperidin-3-yl)-1,3-dioxoisoindolin-5-yl)piperidin-4-yl)methyl)-3-methyl-N-(2-((R)-1-methylpyrrolidin-2-yl)-1H-pyrrolo[3,2-c]pyridin-6-yl)-1H-indazole-6-carboxamide] | – | –
8 | > 7.00 | B (Category B: 50%≤B<75% degradation) | A (Category A: A≥75% degradation) | A (Category A: A≥75% degradation) | Cc1nn(CCCCCC2CCN(c3cccc4c3CN(C3CCC(=O)NC3=O)C4=O)CC2)c2cc(C(=O)Nc3cc4[nH]c([C@H]5CCCN5C)cc4cn3)ccc12 (stereo partly drawn) [Example 105, 1-(5-(1-(2-(2,6-dioxopiperidin-3-yl)-1-oxoisoindolin-4-yl)piperidin-4-yl)pentyl)-3-methyl-N-(2-((R)-1-methylpyrrolidin-2-yl)-1H-pyrrolo[3,2-c]pyridin-6-yl)-1H-indazole-6-carboxamide] | – | –
9 | > 7.00 | A (Category A: A≥75% degradation) | A (Category A: A≥75% degradation) | A (Category A: A≥75% degradation) | Cc1nn(CC2CCN(c3cccc4c3CN(C3CCC(=O)NC3=O)C4=O)CC2)c2cc(C(=O)Nc3cc4[nH]c([C@H]5CCCN5C)cc4cn3)ccc12 (stereo partly drawn) [Example 106, 1-((1-(2-(2,6-dioxopiperidin-3-yl)-1-oxoisoindolin-4-yl)piperidin-4-yl)methyl)-3-methyl-N-(2-((R)-1-methylpyrrolidin-2-yl)-1H-pyrrolo[3,2-c]pyridin-6-yl)-1H-indazole-6-carboxamide] | – | –
10 | > 7.00 | A (Category A: A≥75% degradation) | A (Category A: A≥75% degradation) | A (Category A: A≥75% degradation) | Cc1nn(CCCCCC2CCN(c3ccc4c(c3)C(=O)N(C3CCC(=O)NC3=O)C4=O)CC2)c2cc(C(=O)Nc3cc4[nH]c([C@H]5CCCN5C)cc4cn3)ccc12 (stereo partly drawn) [Example 109, 1-(5-(1-(2-(2,6-dioxopiperidin-3-yl)-1,3-dioxoisoindolin-5-yl)piperidin-4-yl)pentyl)-3-methyl-N-(2-((R)-1-methylpyrrolidin-2-yl)-1H-pyrrolo[3,2-c]pyridin-6-yl)-1H-indazole-6-carboxamide] | – | –
